From patent publication US20090304692A1, “TRIAZINE COMPOUNDS AS PI3 KINASE AND MTOR INHIBITORS” (Wyeth, priority 2008, published 2009)
Several values for one entry are separate records, joined by “and”; a condition that tells them apart may be missing. Equal values may be shown once. Read-outs that look alike come from different tables or passages of the source.

Columns and labels:
[1] = target: PI3K-γ (Homo sapiens, UniProt P48736); assay: PI3K-gamma fluorescence polarization assay; settings: read-out: IC50 PI3Kγ
Chain of PI3K-γ (P48736 whole entry, species assumed): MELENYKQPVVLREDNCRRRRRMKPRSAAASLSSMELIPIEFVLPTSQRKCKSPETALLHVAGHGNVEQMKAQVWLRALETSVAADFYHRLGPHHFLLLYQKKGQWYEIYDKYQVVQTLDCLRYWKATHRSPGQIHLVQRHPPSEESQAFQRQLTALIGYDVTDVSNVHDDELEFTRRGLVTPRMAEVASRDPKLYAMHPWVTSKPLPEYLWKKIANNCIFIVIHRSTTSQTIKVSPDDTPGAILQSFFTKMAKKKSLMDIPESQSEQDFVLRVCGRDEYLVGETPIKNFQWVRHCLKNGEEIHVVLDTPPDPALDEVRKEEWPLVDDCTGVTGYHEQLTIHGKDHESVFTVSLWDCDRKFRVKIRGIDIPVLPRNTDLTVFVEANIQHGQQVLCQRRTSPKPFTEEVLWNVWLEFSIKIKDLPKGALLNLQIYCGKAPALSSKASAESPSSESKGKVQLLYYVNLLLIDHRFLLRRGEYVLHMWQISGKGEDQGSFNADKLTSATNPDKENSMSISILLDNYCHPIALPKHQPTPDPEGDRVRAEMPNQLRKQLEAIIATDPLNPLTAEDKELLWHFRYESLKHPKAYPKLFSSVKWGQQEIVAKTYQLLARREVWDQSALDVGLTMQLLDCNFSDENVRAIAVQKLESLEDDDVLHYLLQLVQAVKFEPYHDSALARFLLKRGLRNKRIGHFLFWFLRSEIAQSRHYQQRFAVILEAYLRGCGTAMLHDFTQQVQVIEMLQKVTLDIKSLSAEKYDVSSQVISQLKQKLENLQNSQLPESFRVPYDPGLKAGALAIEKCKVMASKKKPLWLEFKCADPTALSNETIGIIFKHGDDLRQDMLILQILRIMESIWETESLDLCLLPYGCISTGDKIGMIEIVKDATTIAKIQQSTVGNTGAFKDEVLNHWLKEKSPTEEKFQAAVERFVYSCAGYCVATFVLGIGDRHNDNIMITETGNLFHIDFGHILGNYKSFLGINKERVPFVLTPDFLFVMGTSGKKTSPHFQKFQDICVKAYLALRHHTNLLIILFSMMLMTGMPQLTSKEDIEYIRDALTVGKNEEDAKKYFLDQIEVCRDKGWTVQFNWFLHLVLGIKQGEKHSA

[2] = target: PI3K-α (Homo sapiens, UniProt P42336); assay: PI3K-alpha fluorescence polarization assay
Chain of PI3K-α (P42336 whole entry, species assumed): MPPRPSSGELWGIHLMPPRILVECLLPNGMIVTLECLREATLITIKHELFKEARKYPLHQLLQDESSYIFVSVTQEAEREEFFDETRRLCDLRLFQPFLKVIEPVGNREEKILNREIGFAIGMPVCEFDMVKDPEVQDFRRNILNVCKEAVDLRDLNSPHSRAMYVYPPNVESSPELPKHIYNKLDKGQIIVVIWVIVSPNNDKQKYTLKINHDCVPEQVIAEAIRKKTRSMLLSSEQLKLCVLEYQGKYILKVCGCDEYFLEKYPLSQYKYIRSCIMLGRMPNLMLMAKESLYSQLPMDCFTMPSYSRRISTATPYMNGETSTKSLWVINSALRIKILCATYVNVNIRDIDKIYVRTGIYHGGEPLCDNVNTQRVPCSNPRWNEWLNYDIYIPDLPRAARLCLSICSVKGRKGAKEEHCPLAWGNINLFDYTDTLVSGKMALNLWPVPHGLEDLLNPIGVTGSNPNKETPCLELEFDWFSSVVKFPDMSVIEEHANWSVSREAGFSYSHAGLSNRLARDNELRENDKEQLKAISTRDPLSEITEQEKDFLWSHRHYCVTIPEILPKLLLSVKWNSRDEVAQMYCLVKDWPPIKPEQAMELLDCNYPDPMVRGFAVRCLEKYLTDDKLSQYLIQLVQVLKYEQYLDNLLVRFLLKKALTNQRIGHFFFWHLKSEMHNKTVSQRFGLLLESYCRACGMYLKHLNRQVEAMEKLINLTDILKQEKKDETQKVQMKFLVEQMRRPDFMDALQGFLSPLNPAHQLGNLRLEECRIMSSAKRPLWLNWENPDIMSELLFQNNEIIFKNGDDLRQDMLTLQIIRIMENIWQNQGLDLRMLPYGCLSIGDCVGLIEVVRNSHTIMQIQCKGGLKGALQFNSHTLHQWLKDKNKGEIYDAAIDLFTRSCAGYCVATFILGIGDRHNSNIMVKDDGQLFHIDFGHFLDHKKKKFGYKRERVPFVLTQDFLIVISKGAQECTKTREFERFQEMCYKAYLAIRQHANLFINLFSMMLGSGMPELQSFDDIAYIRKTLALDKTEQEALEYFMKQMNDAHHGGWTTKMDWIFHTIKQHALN
Chain of PI3K-α (P27986 whole entry partner, species assumed): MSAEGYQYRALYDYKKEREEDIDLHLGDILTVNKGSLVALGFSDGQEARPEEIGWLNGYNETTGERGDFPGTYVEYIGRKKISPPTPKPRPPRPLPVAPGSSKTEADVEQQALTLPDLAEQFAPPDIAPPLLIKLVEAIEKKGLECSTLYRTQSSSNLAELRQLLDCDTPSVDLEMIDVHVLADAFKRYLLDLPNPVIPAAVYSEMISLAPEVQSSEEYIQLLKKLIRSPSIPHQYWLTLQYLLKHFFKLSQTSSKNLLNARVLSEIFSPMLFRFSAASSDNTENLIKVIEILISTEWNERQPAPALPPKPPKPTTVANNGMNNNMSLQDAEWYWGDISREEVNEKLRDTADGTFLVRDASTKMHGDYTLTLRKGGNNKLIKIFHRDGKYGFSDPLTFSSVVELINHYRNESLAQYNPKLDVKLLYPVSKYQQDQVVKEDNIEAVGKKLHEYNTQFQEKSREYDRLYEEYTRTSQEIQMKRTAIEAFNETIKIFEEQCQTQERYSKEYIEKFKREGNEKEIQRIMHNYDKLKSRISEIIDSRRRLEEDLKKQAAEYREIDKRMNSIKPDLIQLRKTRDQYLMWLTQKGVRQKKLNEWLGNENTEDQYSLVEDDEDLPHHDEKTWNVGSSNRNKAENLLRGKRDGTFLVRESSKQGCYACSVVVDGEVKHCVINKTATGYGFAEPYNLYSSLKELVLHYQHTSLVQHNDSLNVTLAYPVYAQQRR

[3] = test system: human prostate PC3-mm2 tumor cell line; assay: In vitro cell culture growth assay (MTS), PC3-mm2; type: cell-based; settings: Homo sapiens, PC3MM2, 72 h, MTS cell growth assay, three days after drug treatment, read-out: IC50 PC3-mm2
[4] = test system: human breast MDA-MB-361 tumor cell line; assay: In vitro cell culture growth assay (MTS), MDA-MB-361; type: cell-based; settings: Homo sapiens, MDA-MB-361, 72 h, MTS cell growth assay, three days after drug treatment, read-out: IC50 MDA-MB-361
[5] = target: Human mTOR (FLAG-TOR) (Homo sapiens, UniProt P42345); assay: mTOR kinase assay (DELFIA format, purified enzyme); type: biochemical; settings: read-out: IC50 mTOR
Chain of Human mTOR (FLAG-TOR) (P42345 1360-2549 limits assumed): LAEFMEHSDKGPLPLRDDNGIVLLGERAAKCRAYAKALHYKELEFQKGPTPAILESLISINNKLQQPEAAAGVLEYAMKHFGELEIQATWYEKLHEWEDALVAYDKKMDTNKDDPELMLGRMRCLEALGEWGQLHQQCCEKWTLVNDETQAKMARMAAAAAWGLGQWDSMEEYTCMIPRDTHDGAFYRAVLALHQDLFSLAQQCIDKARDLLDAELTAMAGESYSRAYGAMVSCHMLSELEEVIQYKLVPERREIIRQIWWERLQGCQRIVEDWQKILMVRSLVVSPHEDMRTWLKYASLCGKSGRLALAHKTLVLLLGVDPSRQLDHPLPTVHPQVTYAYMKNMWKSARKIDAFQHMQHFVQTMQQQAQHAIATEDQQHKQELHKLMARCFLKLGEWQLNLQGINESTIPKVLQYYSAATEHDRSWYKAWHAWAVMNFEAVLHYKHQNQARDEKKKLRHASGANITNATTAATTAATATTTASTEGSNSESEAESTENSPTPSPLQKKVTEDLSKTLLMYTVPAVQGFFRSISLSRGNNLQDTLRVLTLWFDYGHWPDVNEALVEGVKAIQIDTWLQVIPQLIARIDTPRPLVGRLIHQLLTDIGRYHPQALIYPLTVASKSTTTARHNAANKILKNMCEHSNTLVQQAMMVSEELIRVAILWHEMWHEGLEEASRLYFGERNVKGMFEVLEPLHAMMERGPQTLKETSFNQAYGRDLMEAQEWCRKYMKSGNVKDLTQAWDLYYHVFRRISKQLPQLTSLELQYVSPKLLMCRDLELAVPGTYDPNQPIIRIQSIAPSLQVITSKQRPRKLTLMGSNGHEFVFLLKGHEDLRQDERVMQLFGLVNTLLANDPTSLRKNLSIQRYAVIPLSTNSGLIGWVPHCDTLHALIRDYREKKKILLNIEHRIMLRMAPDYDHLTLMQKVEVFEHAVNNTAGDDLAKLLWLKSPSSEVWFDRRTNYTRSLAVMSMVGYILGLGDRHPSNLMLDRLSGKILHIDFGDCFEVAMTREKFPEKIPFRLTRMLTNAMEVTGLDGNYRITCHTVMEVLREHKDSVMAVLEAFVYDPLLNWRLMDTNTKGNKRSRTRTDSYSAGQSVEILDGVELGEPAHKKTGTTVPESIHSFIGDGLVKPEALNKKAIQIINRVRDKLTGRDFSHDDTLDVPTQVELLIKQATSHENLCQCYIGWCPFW

Row | SMILES | IC50 [1] | IC50 ([2]; read-out: IC50 PI3Kα) | IC50 ([3]; PC3-mm2 cells) | IC50 [3] | IC50 [4] | IC50 [5] | further results
1 | O=C(Nc1ccncc1)Nc1ccc(-c2nc(CCCN3CCCC3)nc(N3CCOCC3)n2)cc1 [Example 276, 1-{4-[4-morpholin-4-yl-6-(3-pyrrolidin-1-ylpropyl)-1,3,5-triazin-2-yl]phenyl}-3-pyridin-4-ylurea] | 597 nM | 34 nM | 1650 nM | 1650 nM | 1350 nM | 60 nM and 75.5 nM | IC50 ([1]; listed as 733): 412 nM; IC50 ([2]; read-out: IC50 PI3Kα, listed as 733): 31.5 nM
2 | CN1CCN(CCCc2nc(-c3ccc(NC(=O)Nc4ccncc4)cc3)nc(N3CCOCC3)n2)CC1 [Example 277, 1-(4-{4-[3-(4-methylpiperazin-1-yl)propyl]-6-morpholin-4-yl-1,3,5-triazin-2-yl}phenyl)-3-pyridin-4-ylurea] | 276 nM | 30 nM | 572 nM | 572 nM | 530 nM | 60 nM and 59.5 nM | IC50 ([1]; listed as 734): 210 nM; IC50 ([2]; read-out: IC50 PI3Kα, listed as 734): 25.5 nM
3 | CN(C)CCNCCCc1nc(-c2ccc(NC(=O)Nc3ccncc3)cc2)nc(N2CCOCC2)n1 [Example 278, 1-{4-[4-(3-{[2-(dimethylamino)ethyl]amino}propyl)-6-morpholin-4-yl-1,3,5-triazin-2-yl]phenyl}-3-pyridin-4-ylurea] | 344 nM | 26 nM | 3700 nM | 3700 nM | 2300 nM | 250 nM and 123 nM | IC50 ([1]; listed as 735): 290 nM; IC50 ([2]; read-out: IC50 PI3Kα, listed as 735): 26.5 nM
4 | O=C(Nc1ccncc1)Nc1ccc(-c2nc(CCCO)nc(N3CCOCC3)n2)cc1 [Example 279, 1-{4-[4-(3-hydroxypropyl)-6-morpholin-4-yl-1,3,5-triazin-2-yl]phenyl}-3-pyridin-4-ylurea] | 70 nM | 10 nM | 247 nM | 247 nM | 176 nM | 35 nM and 3.6 nM | IC50 ([1]; listed as 736): 53.5 nM; IC50 ([2]; read-out: IC50 PI3Kα, listed as 736): 9.5 nM
5 | O=CCCc1nc(-c2ccc(NC(=O)Nc3ccncc3)cc2)nc(N2CCOCC2)n1 [Example 280, 1-{4-[4-morpholin-4-yl-6-(3-oxopropyl)-1,3,5-triazin-2-yl]phenyl}-3-pyridin-4-ylurea] | 29 nM | 5 nM | 404 nM | 404 nM | 176 nM | 4 nM and 4.45 nM | IC50 ([1]; listed as 737): 30 nM; IC50 ([2]; read-out: IC50 PI3Kα, listed as 737): 7 nM
6 | O=C(Nc1ccncc1)Nc1ccc(-c2nc(N3CCOCC3)nc(N3CC4COC(C3)O4)n2)cc1 (centres unmarked) [Example 282, 1-{4-[4-(6,8-dioxa-3-azabicyclo[3.2.1]oct-3-yl)-6-morpholin-4-yl-1,3,5-triazin-2-yl]phenyl}-3-pyridin-4-ylurea] | 32 nM | 10 nM | 84 nM | 84 nM | 83 nM | 4.7 nM and 4.05 nM | IC50 ([1]; listed as 740): 34.5 nM; IC50 ([2]; read-out: IC50 PI3Kα, listed as 740): 11.5 nM
7 | CN(C)C1CCN(C(=O)c2ccc(NC(=O)Nc3ccc(-c4nc(C5=CCOCC5)nc(N5CCOCC5)n4)cc3)cc2)CC1 [Example 283, 1-{4-[4-(3,6-dihydro-2H-pyran-4-yl)-6-morpholin-4-yl-1,3,5-triazin-2-yl]phenyl}-3-(4-{[4-(dimethylamino)piperidin-1-yl]carbonyl}phenyl)urea] | 11 nM | 1 nM | 33.3 nM | 33.3 nM | 12.3 nM | 3.1 nM | IC50 ([1]; listed as 505): 5 nM; IC50 ([2]; read-out: IC50 PI3Kα, listed as 505): 0.6 nM; IC50 ([4]; MDA-MB-361 cells): 12.3 nM
8 | CN(C)CCNC(=O)c1ccc(NC(=O)Nc2ccc(-c3nc(C4=CCOCC4)nc(N4CCOCC4)n3)cc2)cc1 [Example 284, 4-[({4-[4-(3,6-dihydro-2H-pyran-4-yl)-6-morpholin-4-yl-1,3,5-triazin-2-yl]phenyl}carbamoyl)amino]-N-[2-(dimethylamino)ethyl]benzamide] | 12 nM | 0.7 nM | 36.3 nM | 36.3 nM | 12 nM | 0.9 nM and 0.97 nM | IC50 ([1]; listed as 508): 12.5 nM; IC50 [2]: < 1.9 nM
9 | CCCc1nc(-c2ccc(NC(=O)Nc3ccc(N4CCN(C)CC4)cc3)cc2)nc(N2CCOCC2)n1 [Example 294, 1-[4-(4-methylpiperazin-1-yl)phenyl]-3-[4-(4-morpholin-4-yl-6-propyl-1,3,5-triazin-2-yl)phenyl]urea] | 26 nM | 9 nM | – | 154 nM | 69 nM | 18 nM | –
10 | CCc1nc(-c2ccc(NC(=O)Nc3ccc(OCCN(C)C)cc3)cc2)nc(N2CCOCC2)n1 [Example 295, 1-{4-[2-(dimethylamino)ethoxy]phenyl}-3-[4-(4-ethyl-6-morpholin-4-yl-1,3,5-triazin-2-yl)phenyl]urea] | 81 nM | 19 nM | – | 189 nM | 133 nM | 29 nM | –
11 | CCc1nc(-c2ccc(NC(=O)Nc3ccc(N4CCN(C)CC4)cc3)cc2)nc(N2CCOCC2)n1 [Example 296, 1-[4-(4-ethyl-6-morpholin-4-yl-1,3,5-triazin-2-yl)phenyl]-3-[4-(4-methylpiperazin-1-yl)phenyl]urea] | 35 nM | 13 nM | – | 133 nM | 83 nM | 21 nM | –
12 | CC(C)Cc1nc(-c2ccc(NC(=O)Nc3ccc(N4CCN(C)CC4)cc3)cc2)nc(N2CCOCC2)n1 [Example 297, 1-[4-(4-methylpiperazin-1-yl)phenyl]-3-{4-[4-(2-methylpropyl)-6-morpholin-4-yl-1,3,5-triazin-2-yl]phenyl}urea] | 70 nM | 38 nM | – | 290 nM | 115 nM | 10 nM | –
13 | CCc1nc(-c2ccc(NC(=O)Nc3ccc(C(=O)N4CCNC(C)(C)C4)cc3)cc2)nc(N2CCOCC2)n1 [Example 298, 1-{4-[(3,3-dimethylpiperazin-1-yl)carbonyl]phenyl}-3-[4-(4-ethyl-6-morpholin-4-yl-1,3,5-triazin-2-yl)phenyl]urea] | 24 nM | 2 nM | – | 165 nM | 38 nM | 21 nM | –
14 | CCc1nc(-c2ccc(NC(=O)Nc3ccc(C(=O)NC4CN(C)C4)cc3)cc2)nc(N2CCOCC2)n1 [Example 299, 4-({[4-(4-ethyl-6-morpholin-4-yl-1,3,5-triazin-2-yl)phenyl]carbamoyl}amino)-N-(1-methylazetidin-3-yl)benzamide] | 34 nM | 3 nM | – | 219 nM | 73 nM | 80 nM | –
15 | CC(C)c1nc(-c2ccc(NC(=O)Nc3ccc(C(=O)O)cc3)cc2)nc(N2CCOCC2)n1 [Example 301, 4-[({4-[4-(1-methylethyl)-6-morpholin-4-yl-1,3,5-triazin-2-yl]phenyl}carbamoyl)amino]benzoic acid] | 58 nM | 21 nM | – | 759 nM | 430 nM | 0.8 nM | –
16 | CC(O)c1ccc(NC(=O)Nc2ccc(-c3nc(N4CCOCC4)nc(N4C[C@H]5C[C@@H]4CN5C(=O)OC(C)(C)C)n3)cc2)cc1 (stereo partly drawn) [Example 302, tert-butyl-(1R,4R)-5-{4-[4-({[4-(1-hydroxyethyl)phenyl]carbamoyl}amino)phenyl]-6-morpholin-4-yl-1,3,5-triazin-2-yl}-2,5-diazabicyclo[2.2.1]heptane-2-carboxylate] | 263 nM | 35 nM | – | 539 nM | 299 nM | 36 nM | –
17 | CC(C)c1nc(-c2ccc(NC(=O)Nc3ccc(C(=O)NCCN(C)C)cc3)cc2)nc(N2CCOCC2)n1 [Example 305, N-[2-(dimethylamino)ethyl]-4-[({4-[4-(1-methylethyl)-6-morpholin-4-yl-1,3,5-triazin-2-yl]phenyl}carbamoyl)amino]benzamide] | 18 nM | 1 nM | – | 46 nM | 4 nM | 0.6 nM | –
18 | CC(C)c1nc(-c2ccc(NC(=O)Nc3ccc(C(=O)N(C)CCN(C)C)cc3)cc2)nc(N2CCOCC2)n1 [Example 306, N-[2-(dimethylamino)ethyl]-N-methyl-4-[({4-[4-(1-methylethyl)-6-morpholin-4-yl-1,3,5-triazin-2-yl]phenyl}carbamoyl)amino]benzamide] | 19 nM | 1 nM | – | 30 nM | 7 nM | 2.1 nM | –
19 | CC(C)c1nc(-c2ccc(NC(=O)Nc3ccc(C(=O)N4CCC(N(C)C)CC4)cc3)cc2)nc(N2CCOCC2)n1 [Example 308, 1-(4-{[4-(dimethylamino)piperidin-1-yl]carbonyl}phenyl)-3-{4-[4-(1-methylethyl)-6-morpholin-4-yl-1,3,5-triazin-2-yl]phenyl}urea] | 14 nM | 3 nM | – | 53 nM | 4 nM | 2.9 nM | –
20 | CC(C)c1nc(-c2ccc(NC(=O)Nc3ccc(C(=O)Nc4ccncc4)cc3)cc2)nc(N2CCOCC2)n1 [Example 309, 4-[({4-[4-(1-methylethyl)-6-morpholin-4-yl-1,3,5-triazin-2-yl]phenyl}carbamoyl)amino]-N-pyridin-4-ylbenzamide] | 95 nM | 12 nM | – | 109 nM | 64 nM | 3.5 nM | –
